Test results reported in the C3SDB collision cross section collection.
Blank lines part the entries; values can stand above or below the molecule they belong to.

Experiments:
[1] = instrument: DT, stepped-field
[2] = instrument: TW, calibrated with polyalanine
[3] = instrument: DT, single field, calibrated with Agilent tune mix (Agilent)
[4] = instrument: DT, stepped-field; remark: listed apart in the source

collision cross section (N2) ([2]; [M+H]+): 124 Å²
collision cross section (N2) ([3]; [M+H-H2O]+): 135.4 Å²
SMILES: NCCS(=O)(=O)O [Taurine]

collision cross section (N2) ([4]; [M+H]+): 126.14 Å²
collision cross section (N2) ([2]; [M+H]+): 115 Å²
collision cross section (N2) ([3]; [M+H]+): 121.9 Å²
collision cross section (N2) ([3]; [M-H]-): 117.39 Å²
SMILES: Cc1c[nH]c(=O)[nH]c1=O [Thymine]

collision cross section (N2) ([4]; [M+H]+): 123.93 Å²
collision cross section (N2) ([4]; [M+Na]+): 133.41 Å²
collision cross section (N2) ([3]; [M+H]+): 123.4 Å²
collision cross section (N2) ([3]; [M-H]-): 116.68 Å²
collision cross section (N2) ([1]; [M+H]+): 123.87 Å²
collision cross section (N2) ([1]; [M+Na]+): 132.99 Å²
collision cross section (N2) ([1]; [M-H]-): 120.7 Å²
SMILES: CN1CC(=O)N=C1N [Creatinine]

collision cross section (N2) ([3]; [M-H2O-H]-): 182.99 Å²
collision cross section (N2) ([1]; [M+H]+): 189.27 Å²
collision cross section (N2) ([1]; [M+Na]+): 213.72 Å²
SMILES: C[C@]12CCC(=O)C=C1CC[C@@H]1[C@@H]2[C@@H](O)C[C@@]2(C)[C@H]1CC[C@]2(O)C(=O)CO [Hydrocortisone]

collision cross section (N2) ([4]; [M+H]+): 166.49 Å²
collision cross section (N2) ([4]; [M+Na]+): 177.45 Å²
collision cross section (N2) ([2]; [M+H]+): 158 Å²
collision cross section (N2) ([3]; [M+Na]+): 172.8 Å²
SMILES: O=c1[nH]c(=O)c2ncn([C@@H]3O[C@H](CO)[C@@H](O)[C@H]3O)c2[nH]1 [Xanthosine]

collision cross section (N2) ([2]; [M+H]+): 133 Å²
collision cross section (N2) ([3]; [M+H-H2O]+): 138.3 Å²
collision cross section (N2) ([3]; [M-H]-): 137.87 Å²
SMILES: CNC[C@H](O)c1ccc(O)c(O)c1 [Epinephrine]

Further lines, the molecule ahead of its results:

SMILES: CCC(C)[C@H](NC(=O)[C@H](CC(C)C)NC(=O)[C@H](CC(=O)O)NC(=O)[C@@H](N)CCC(=O)O)C(=O)N[C@@H](C)C(=O)N[C@@H](Cc1ccc(O)cc1)C(=O)N[C@@H](CC(C)C)C(=O)N[C@@H](CCCCN)C(=O)O (stereo not given in full) [EDLIAYLK]
collision cross section (N2) ([1]; [M+2H]2+): 340.98 Å²
collision cross section (N2) ([1]; [M+H]+): 307.47 Å²

SMILES: CCC(C)[C@H](N)C(=O)N[C@@H](Cc1ccccc1)C(=O)N[C@H](C(=O)N[C@@H](CCC(N)=O)C(=O)N[C@@H](CCCCN)C(=O)O)C(C)C (stereo not given in full) [IFVQK]
collision cross section (N2) ([1]; [M+2H]2+): 285.5 Å²
collision cross section (N2) ([1]; [M+H]+): 248.88 Å²

SMILES: CCCCCCCCCCCCCCCC(=O)O [Palmitic acid]
collision cross section (N2) ([3]; [M+Na]+): 195 Å²
collision cross section (N2) ([3]; [M-H]-): 167.52 Å²
collision cross section (N2) ([1]; [M-H]-): 169.12 Å²

SMILES: CCC(C)[C@H](NC(=O)CNC(=O)[C@H](C)NC(=O)[C@H](Cc1ccccc1)NC(=O)[C@@H](NC(=O)[C@@H](N)CCSC)C(C)CC)C(=O)N[C@@H](CCCCN)C(=O)O (stereo not given in full) [MIFAGIK]
collision cross section (N2) ([1]; [M+2H]2+): 305.66 Å²
collision cross section (N2) ([1]; [M+H]+): 275.34 Å²

SMILES: N[C@H]1C(O)O[C@H](CO)[C@@H](O)[C@@H]1O (stereo not given in full) [Glucosamine]
collision cross section (N2) ([2]; [M+H]+): 135 Å²
collision cross section (N2) ([3]; [M+H-H2O]+): 132.9 Å²

SMILES: N[C@@H](CC(=O)O)C(=O)O [L-Aspartic acid]
collision cross section (N2) ([1]; [M-H]-): 120.39 Å²

SMILES: CCCCCCCCCCCC(=O)O [Lauric acid]
collision cross section (N2) ([1]; [M-H]-): 154.82 Å²

SMILES: CCC(C)C(NC(=O)C(Cc1ccc(O)cc1)NC(=O)C1CCCN1C(=O)C(CCCN=C(N)N)NC(=O)C(CCCN=C(N)N)NC(=O)C1CCCN1C(=O)C(CCCCN)NC(=O)C(CC(N)=O)NC(=O)C(CCC(=O)O)NC(=O)C(Cc1ccc(O)cc1)NC(=O)C(CC(C)C)NC(=O)C1CCC(=O)N1)C(=O)NC(CC(C)C)C(=O)O (stereo not given) [Neurotensin]
collision cross section (N2) ([1]; [M+2H]2+): 434.32 Å²
collision cross section (N2) ([1]; [M+3H]3+): 525.02 Å²

SMILES: N[C@H]1[C@@H](OP(=O)(O)O)O[C@H](CO)[C@@H](O)[C@@H]1O [Glucosamine 1-phosphate]
collision cross section (N2) ([2]; [M+H]+): 153 Å²
collision cross section (N2) ([3]; [M+Na]+): 158.5 Å²

SMILES: NC(CCS)C(=O)O (racemic) [DL-Homocysteine]
collision cross section (N2) ([1]; [M+H]+): 130.78 Å²

SMILES: NCCCC[C@H](N)C(=O)O [L-Lysine]
collision cross section (N2) ([4]; [M+H]+): 131.8 Å²
collision cross section (N2) ([3]; [M+H]+): 130.7 Å²
collision cross section (N2) ([1]; [M+H]+): 131.62 Å²

SMILES: OC[C@H]1O[C@@](CO)(O[C@H]2O[C@H](CO)[C@@H](O)[C@H](O)[C@H]2O)[C@@H](O)[C@@H]1O [sucrose]
collision cross section (N2) ([2]; [M+Na]+): 170 Å²
